Measurements published in ChEMBL document CHEMBL5725517, “Azapeptides as CD36 binding compounds” (2017).
Starred links: 1 amine or outer side, 2 acyl side, 3 side chain; linkers in the order of their positions; H or OH if unused. Non-standard residues stand in square brackets, D forms with d. Residues, ends and D or L forms follow the SMILES beside them. X4 = O=C(N(Cc1ccc(-c2ccccc2)cc1)N[*:1])[*:2]; azaTyr = O=C(N(Cc1ccc(O)cc1)N[*:1])[*:2]; X3 = O=C(N(Cc1cccc2ccccc12)N[*:1])[*:2]; azaPhe = O=C(N(Cc1ccccc1)N[*:1])[*:2]; X2 = O=C(N(CCc1ccccc1)N[*:1])[*:2]; azaLeu = CC(C)CN(N[*:1])C(=O)[*:2]; X1 = O=C(N(CC1CCCCC1)N[*:1])[*:2]

Assay: HS-R1a radioreceptor assay: GHS-R1a radioreceptor assay using LLCPK-1 membranes overexpressing GSH-R1a and radioiodinated (1-28) rat ghrelin as tracer.

In order of falling EC50:
1. CC(C)CN(NC(=O)[C@H](C)NC(=O)[C@@H](Cc1c[nH]c2ccccc12)NC(=O)[C@@H](N)Cc1cnc[nH]1)C(=O)N[C@H](Cc1ccccc1)C(=O)N[C@@H](CCCCN)C(N)=O (H-H[dW]A[azaLeu][dF]K-NH2)  19.5 µM
2. C[C@H](NC(=O)N(Cc1ccccc1)NC(=O)[C@@H](N)Cc1cnc[nH]1)C(=O)N[C@@H](Cc1c[nH]c2ccccc12)C(=O)N[C@H](Cc1ccccc1)C(=O)N[C@@H](CCCCN)C(N)=O (H-H[azaPhe]AW[dF]K-NH2)  16.1 µM
3. C[C@H](NC(=O)[C@@H](Cc1c[nH]c2ccccc12)NC(=O)[C@@H](N)Cc1cnc[nH]1)C(=O)NN(Cc1ccc(O)cc1)C(=O)N[C@H](Cc1ccccc1)C(=O)N[C@@H](CCCCN)C(N)=O (H-H[dW]A[azaTyr][dF]K-NH2)  15.7 µM
4. C[C@H](NC(=O)N(CC1CCCCC1)NC(=O)[C@@H](N)Cc1cnc[nH]1)C(=O)N[C@@H](Cc1c[nH]c2ccccc12)C(=O)N[C@H](Cc1ccccc1)C(=O)N[C@@H](CCCCN)C(N)=O (H-H[X1]AW[dF]K-NH2)  5.49 µM
5. C[C@H](NC(=O)[C@@H](Cc1c[nH]c2ccccc12)NC(=O)[C@@H](N)Cc1cnc[nH]1)C(=O)NN(CC1CCCCC1)C(=O)N[C@H](Cc1ccccc1)C(=O)N[C@@H](CCCCN)C(N)=O (H-H[dW]A[X1][dF]K-NH2)  4.28 µM
6. C[C@H](NC(=O)[C@@H](Cc1c[nH]c2ccccc12)NC(=O)[C@@H](N)Cc1cnc[nH]1)C(=O)NN(CCc1ccccc1)C(=O)N[C@H](Cc1ccccc1)C(=O)N[C@@H](CCCCN)C(N)=O (H-H[dW]A[X2][dF]K-NH2)  3.74 µM
7. C[C@H](NC(=O)[C@@H](Cc1c[nH]c2ccccc12)NC(=O)[C@@H](N)Cc1cnc[nH]1)C(=O)N[C@H](Cc1ccc(O)cc1)C(=O)N[C@H](Cc1ccccc1)C(=O)N[C@@H](CCCCN)C(N)=O (H-H[dW]A[dY][dF]K-NH2)  3.25 µM
8. C[C@H](NC(=O)[C@@H](Cc1c[nH]c2ccccc12)NC(=O)[C@@H](N)Cc1cnc[nH]1)C(=O)NN(Cc1ccccc1)C(=O)N[C@H](Cc1ccccc1)C(=O)N[C@@H](CCCCN)C(N)=O (H-H[dW]A[azaPhe][dF]K-NH2)  2.77 µM
9. C[C@H](NC(=O)[C@@H](Cc1c[nH]c2ccccc12)NC(=O)[C@@H](N)Cc1cnc[nH]1)C(=O)NN(Cc1ccc(-c2ccccc2)cc1)C(=O)N[C@H](Cc1ccccc1)C(=O)N[C@@H](CCCCN)C(N)=O (H-H[dW]A[X4][dF]K-NH2)  1.34 µM
10. CC(C)CN(NC(=O)[C@@H](Cc1c[nH]c2ccccc12)NC(=O)[C@@H](N)Cc1cnc[nH]1)C(=O)N[C@@H](Cc1c[nH]c2ccccc12)C(=O)N[C@H](Cc1ccccc1)C(=O)N[C@@H](CCCCN)C(N)=O (H-H[dW][azaLeu]W[dF]K-NH2)  1.2 µM
11. C[C@H](NC(=O)[C@@H](Cc1c[nH]c2ccccc12)NC(=O)[C@@H](N)Cc1cnc[nH]1)C(=O)N[C@@H](Cc1ccc(O)cc1)C(=O)N[C@H](Cc1ccccc1)C(=O)N[C@@H](CCCCN)C(N)=O (H-H[dW]AY[dF]K-NH2)  0.771 µM
12. C[C@H](NC(=O)[C@@H](Cc1c[nH]c2ccccc12)NC(=O)[C@@H](N)Cc1cnc[nH]1)C(=O)NN(Cc1cccc2ccccc12)C(=O)N[C@H](Cc1ccccc1)C(=O)N[C@@H](CCCCN)C(N)=O (H-H[dW]A[X3][dF]K-NH2)  0.723 µM
